Data taken from ChEMBL document CHEMBL3232912, “Anti-inflammatory diterpenoids from the roots of Euphorbia ebracteolata” (J Nat Prod, 2014).

Key:
[1] = test system: RAW264.7; assay: Cytotoxicity against mouse RAW264.7 cells at IC50 by MTT assay; format: cell-based
[2] = test system: RAW264.7; assay: Antiinflammatory activity in mouse RAW264.7 cells assessed as inhibition of LPS-induced nitric oxide production after 24 hrs by Griess method; format: functional, cell-based; settings: RAW264.7, 24 h

SMILES | IC50 [2] | Activity [1]
C=C[C@]1(C)CC[C@@]2(C)c3cc(O)c(O)c(C)c3CC[C@@H]2C1 | 3.33 µM | Non-toxic
C=C[C@]1(C)CC[C@]2(C)[C@H](CC[C@H]3[C@@](C)(CO)C(=O)C=C[C@@]32O)C1 | 7.32 µM | Non-toxic
C=C[C@]1(C)CC[C@@]2(C)C3=CC(=O)[C@@H]4C[C@]4(C)[C@]3(O)CC[C@@H]2C1 | 2.76 µM | Non-toxic
C=C[C@]1(C)CC[C@@]2(C)C3=C[C@@H](O)[C@H](O)C(C)(C)[C@@H]3CC[C@@H]2C1 | 24.3 µM | Non-toxic
C=C[C@]1(C)CC[C@@]2(C)C3=C[C@H](O)[C@H](O)C(C)(C)[C@@H]3CC[C@@H]2C1 | 12.5 µM | Non-toxic
C=C[C@]1(C)CC[C@]2(C)[C@H](CC[C@H]3[C@@](C)(CO)C(=O)C=C[C@]32O)C1 | 19 µM | Non-toxic
C=C[C@]1(C)CC[C@@]2(C)c3cc(O)c(O)c(C)c3C[C@H](O)[C@@H]2C1 | 2.44 µM | Non-toxic
C=C[C@]1(C)CC[C@@]2(C)C3=CC[C@H](O)[C@](C)(CO)[C@@H]3CC[C@@H]2C1 | 7.29 µM | Non-toxic
COc1ccc2c(c1)c(CC(=O)O)c(C)n2C(=O)c1ccc(Cl)cc1 [INDOMETHACIN] | 16.7 µM | 

Second part, led by results:

IC50 [2] | SMILES | Activity [1]
1.02 µM | C=C[C@]1(C)CC[C@@]2(C)C3=CC(=O)[C@H](O)[C@](C)(CO)[C@@H]3CC[C@@H]2C1 | Non-toxic
7.5 µM | C=C[C@]1(C)CC[C@@]2(CO)C3=CC(=O)O[C@@H]3C(C)(C)CC[C@@H]2C1 | Non-toxic
6.49 µM | C=C[C@]1(C)CC[C@@]2(C)C3=CC(=O)O[C@@H]3C(C)(C)C[C@H](O)[C@@H]2C1 | Non-toxic
5.51 µM | C=C[C@]1(C)CC[C@@]2(C)C3=CC[C@H](O)C(C)(C)[C@@H]3C[C@H](O)[C@@H]2C1 | Non-toxic
5.57 µM | C=C[C@]1(C)CC[C@@]2(CO)C3=CC[C@H](O)C(C)(C)[C@@H]3CC[C@@H]2C1 | Non-toxic
